Assay results reported in PMC9571302, “Evaluation of Major Constituents of Medicinally Important Plants for Anti-Inflammatory, Antidiabetic and AGEs Inhibiting Properties: In Vitro and Simulatory Evidence” (Molecules, 2022).
Where two headings read alike, the source gives them in different places.

Experiments:
[1] = target: T1, bovine serum albumin (BSA) glycation by glucose (Bos taurus, UniProt P02769); assay: AGEs assay, non-oxidative (BSA-glucose assay); format: biochemical
T1 construct: purchased Merck (Dorset, UK) and Oxoid (Hampshire, UK)
T1 sequence (P02769 25-607): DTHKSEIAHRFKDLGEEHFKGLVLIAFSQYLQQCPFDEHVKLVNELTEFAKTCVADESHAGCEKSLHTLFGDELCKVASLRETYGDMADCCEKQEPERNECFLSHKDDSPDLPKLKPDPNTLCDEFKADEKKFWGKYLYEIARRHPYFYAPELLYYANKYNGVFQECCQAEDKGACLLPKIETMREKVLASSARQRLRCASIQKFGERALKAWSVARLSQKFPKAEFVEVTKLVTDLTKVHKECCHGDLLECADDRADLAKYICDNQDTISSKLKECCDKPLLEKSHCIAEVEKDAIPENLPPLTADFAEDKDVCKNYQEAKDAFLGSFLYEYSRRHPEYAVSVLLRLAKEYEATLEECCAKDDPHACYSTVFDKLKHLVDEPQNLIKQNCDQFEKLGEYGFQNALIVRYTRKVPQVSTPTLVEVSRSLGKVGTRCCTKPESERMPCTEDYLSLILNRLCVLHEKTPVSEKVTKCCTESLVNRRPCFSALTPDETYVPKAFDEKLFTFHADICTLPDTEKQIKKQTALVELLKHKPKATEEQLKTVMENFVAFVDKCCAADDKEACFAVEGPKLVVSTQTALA
Method: 4.5.2. AGEs Assay (BSA-Glucose Assay)
The AGEs assay was accomplished by using a standard protocol. The protein source (bovine serum albumin, BSA) (10 mg/mL; 135 µL) was mixed with D-glucose solution (500 mM, 135 µL in phosphate buffer; 50 mM, pH 7.4), NaN3 (sodium azide; 0.02%) and test samples (various concentrations). The reaction mixtures were kept at 60 °C for 1 week to facilitate glycation. Finally, trichloroacetic acid (10 µL, 100%) was added to it to stop the reaction and precipitate the unbound material. […] Aminoguanidine was used as positive control. The control samples used for the experiment were prepared using the same protocol without the test sample.
The AGEs inhibition was calculated as % inhibition = {1 − [Fluo(BSA + glucose + test substance) − Fluo (BSA + test substance)]/[Fluo (BSA + glucose) − Fluo(BSA)]} × 100 where Fluo is the fluorescence intensity. The IC50 was calculated using MS Excel.

[2] = target: T2, bovine serum albumin (BSA) glycation by methylglyoxal (Bos taurus, UniProt P02769); assay: AGEs assay, oxidative (BSA-MGO assay); format: biochemical
T2 construct: purchased Merck (Dorset, UK) and Oxoid (Hampshire, UK)
T2 sequence (P02769 25-607): as above
Method: The test samples were added to this reaction mixture and stored at 37 °C for a week. […] The control samples used for the experiment were prepared using the same protocol without a test sample.
The AGEs inhibition was determined as % inhibition = {1 − [(Fluo (BSA + MGO + test substance) − Fluo (BSA + test substance)]/[(Fluo (BSA + MGO) − Fluo (BSA)]} × 100 where Fluo is the fluorescence intensity. The IC50 was calculated using MS Excel.

α-glucosidase = assay: α-Glucosidase inhibition assay; format: biochemical, Saccharomyces cerevisiae
Method: 4.5.1. α-Glucosidase Inhibition Assay
The α-glucosidase inhibition experiment was accomplished by using a modified method. Initially, the enzyme solution (from Saccharomyces cerevisiae) (0.2 units/mL dissolved in 0.1 M phosphate buffer; pH 6.8) was mixed with the test sample (1 to 0.039 mg/mL) and incubated in an oven (37 °C for 10 min). After incubation, the substrate (p-nitrophenyl-α-D-glucopyranoside; 0.29 mM) was added to the enzyme and test sample solution and incubated for another 30 min (37 °C).
The percentage of inhibition was determined using the following formula: % Inhibition = [1 − absorbance of test sample/absorbance of control] × 100

[3] = target: T3, BSA cross-link formation (BSA-MGO) (Bos taurus, UniProt P02769); assay: Protein cross-linking assay by SDS-PAGE, BSA-MGO; format: biochemical, bovine; settings: SDS-PAGE integrated density
T3 construct: purchased Merck (Dorset, UK) and Oxoid (Hampshire, UK)
T3 sequence (P02769 25-607): as above
Method: (§1) 4.5.4. Protein Cross-Linking Assay
(§2) Protein cross-linked by AGEs were observed by SDS-PAGE (sodium dodecyl sulphate-polyacrylamide gel electrophoresis). In this experiment, gels (10%) were made and stained with dye (0.25% Coomassie blue). The protein samples (6 µL) were diluted with Tris–HCl buffer (3.75 mL, 0.05 M; pH 6.8) also comprising sodium dodecyl sulphate (150 µL, 10% w/v), 2-mercaptoethanol 1% (v/v) and glycerin 20% v/v), followed by boiling for 5 min. The ladder (12 μL) was loaded into the well on gel preceded by the loading of bromophenol blue (2 μL). After loading, the electrophoresis was accomplished by using the Mini-Protean® Tetra Cell apparatus (Bio-Rad, UK). Afterwards, the gels were stained in a solution containing Coomassie blue [0.25% (w/v)], methanol [50% (v/v)] and acetic acid [10% (v/v)].
(§3) 4.5.5. SDS-PAGE Gels Image Analysis
(§4) The developed gel was stained with Coomassie blue and images were obtained using GelDoc. Finally, the Image J tool was used for the determination of integrated density (IntDen). The integrated density was employed further for the determination of percentage inhibition. The integrated density (ID) was determined as follows:Integrated density (ID) = N × (mean − background) where N is the number of pixels in the selection and the background is the modal grey value (most common pixel value) after smoothing the histogram.

15-LOX (lipoxygenase) = target: T4, 15-LOX (lipoxygenase) (Glycine max, UniProt P08170); assay: 15-Lipoxygenase assay; format: biochemical
T4 construct: purchased Merck (Dorset, UK) and Oxoid (Hampshire, UK)
T4 sequence (P08170 1-839): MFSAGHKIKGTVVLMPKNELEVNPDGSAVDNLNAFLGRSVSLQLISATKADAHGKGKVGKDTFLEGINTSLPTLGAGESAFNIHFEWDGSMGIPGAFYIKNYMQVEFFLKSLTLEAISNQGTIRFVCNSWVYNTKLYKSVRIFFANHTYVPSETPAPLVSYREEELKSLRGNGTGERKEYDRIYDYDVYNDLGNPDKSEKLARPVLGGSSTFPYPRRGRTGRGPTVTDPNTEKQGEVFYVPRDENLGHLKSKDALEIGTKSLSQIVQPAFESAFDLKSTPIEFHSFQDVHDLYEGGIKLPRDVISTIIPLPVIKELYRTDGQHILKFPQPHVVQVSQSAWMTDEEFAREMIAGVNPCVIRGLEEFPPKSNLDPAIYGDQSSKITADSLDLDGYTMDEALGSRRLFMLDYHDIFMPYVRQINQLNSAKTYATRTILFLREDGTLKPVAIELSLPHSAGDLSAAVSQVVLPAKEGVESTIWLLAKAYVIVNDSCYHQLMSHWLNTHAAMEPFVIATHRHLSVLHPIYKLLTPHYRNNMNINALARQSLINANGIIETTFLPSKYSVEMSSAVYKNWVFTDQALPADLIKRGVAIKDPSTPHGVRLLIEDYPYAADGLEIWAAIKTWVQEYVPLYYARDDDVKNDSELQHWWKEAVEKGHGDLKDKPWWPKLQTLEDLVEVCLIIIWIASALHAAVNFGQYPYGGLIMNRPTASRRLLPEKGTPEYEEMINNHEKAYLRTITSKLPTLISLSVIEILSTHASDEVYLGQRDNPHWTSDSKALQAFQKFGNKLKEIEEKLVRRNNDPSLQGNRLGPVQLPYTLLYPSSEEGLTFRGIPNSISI
Method: The anti-inflammatory activity of test samples was evaluated using a standard protocol [65]. To the enzyme solution (200 units/mL; 487.5 µL), different concentrations of test sample (12.5 µL (2–0.062 mM) in DMSO were added and incubated for 5 min at 37 °C. The absorbance was recorded immediately after the addition of substrate (500 µL of substrate (250 mM linoleic acid in 0.2 M borate buffer, pH 9) and after every min up to 5 min at 234 nm by using a UV spectrophotometer (UV-1601, SHEMADZU, Kyoto, Japan).
The percentage inhibition of enzyme activity was calculated as follows:% inhibition = ([ΔA1/Δt] − [ΔA2/Δt]/(ΔA1/Δt) × 100 where ΔA1/Δt and ΔA2/Δt are the increase rate in absorbance at 234 nm for a sample without test substance and with test substance, respectively.

[4] = target: T5, BSA cross-link formation (BSA-glucose) (Bos taurus, UniProt P02769); assay: Protein cross-linking assay by SDS-PAGE, BSA-glucose; format: biochemical, bovine; settings: SDS-PAGE integrated density
T5 construct: purchased Merck (Dorset, UK) and Oxoid (Hampshire, UK)
T5 sequence (P02769 25-607): as the sequence (P02769 25-607) above
Method: as §1, §2, §3, §4

[5] = read-out: 15-LOX Assay (% Inhibition)
[6] = non-oxidative mode, Table 6, read-out: Protein Glycation BSA-Glucose (IC50) (converted)
[7] = oxidative mode, Table 6, read-out: Protein Glycation BSA-MGO (IC50) (converted)

## S=C=NCCc1ccccc1 [2-Phenylethylisothiocyanate, 2-phenylethylisothiocyanate]
[1]
  Protein Glycation BSA-Glucose (IC50): Inactive
[2]
  Protein Glycation BSA-MGO (IC50): Inactive
α-glucosidase
  α-Glucosidase (IC50): 28.9 ± 0.1 µg/mL
[3]
  Inhibition of protein cross-link formation: 48%
15-LOX (lipoxygenase); 25 µg/mL
  15-LOX Assay (% Inhibition): Inactive ^5

## O=c1cc(-c2ccc(O)cc2)oc2cc(O)cc(O)c12 [Apigenin, apigenin]
[1]
  IC50: 1670 µM
[2]
  Protein Glycation BSA-MGO (IC50): Inactive
α-glucosidase
  α-Glucosidase (IC50): 24.4 ± 0.1 µg/mL
15-LOX (lipoxygenase); 14.1 µg/mL
  inhibition at 14.1 µg/mL: 53 ± 0.1%
[4]
  Inhibition of protein cross-link formation: 51%

## C=C1CC[C@H]2O[C@]2(C)CC[C@@H]2[C@@H]1CC2(C)C [Caryophyllene oxide, caryophyllene-oxide]
[1]; non-oxidative mode, Table 6
  Protein Glycation BSA-Glucose (IC50): Inactive
[2]; oxidative mode, Table 6
  Protein Glycation BSA-MGO (IC50): Inactive
α-glucosidase
  α-Glucosidase (IC50): Inactive
[3]
  Inhibition of protein cross-link formation: 35%
15-LOX (lipoxygenase); 12.5 µg/mL
  15-LOX Assay (% Inhibition): 50.0± 0.1% ^2

## C=C1CC/C=C(\C)CC[C@@H]2[C@@H]1CC2(C)C [Caryophyllene, trans-caryophyllene]
[1]
  Protein Glycation BSA-Glucose (IC50): Inactive
[2]
  Protein Glycation BSA-MGO (IC50): Inactive
α-glucosidase
  α-Glucosidase (IC50): Inactive
15-LOX (lipoxygenase); 25 µg/mL
  15-LOX Assay (% Inhibition): Inactive ^6

## C=CCc1ccc(O)c(OC)c1 [Eugenol, eugenol]
[1]
  IC50: 244 µM
[2]
  Protein Glycation BSA-MGO (IC50): Inactive
α-glucosidase
  α-Glucosidase (IC50): Inactive
15-LOX (lipoxygenase); [5]
  inhibition at 83 µg/mL: 51 ± 0.2%

## O=C1C=CC(=O)c2c(O)cccc21 [Juglone, juglone]
[1]; [6]
  IC50: 345 µM
[2]; [7]
  IC50: 632 µM
α-glucosidase
  α-Glucosidase (IC50): 5.7 ± 0.1 µg/mL
[3]
  Inhibition of protein cross-link formation: 39%
15-LOX (lipoxygenase); 2.5 µg/mL
  inhibition at 2.5 µg/mL: 57 ± 0.1%

## O=c1c(O)c(-c2ccc(O)c(O)c2)oc2cc(O)cc(O)c12 [Quercetin, quercetin]
15-LOX (lipoxygenase); 25 µg/mL
  inhibition at 25 µg/mL: 62 ± 0.1%
[4]
  Inhibition of protein cross-link formation: 53%

## C[C@@H]1O[C@@H](Oc2c(-c3ccc(O)c(O)c3)oc3cc(O)cc(O)c3c2=O)[C@H](O)[C@H](O)[C@H]1O [Quercitrin, quercitrin]
[1]
  IC50: 201 µM
[2]
  IC50: 758 µM
α-glucosidase
  α-Glucosidase (IC50): 7.6 ± 0.1 µg/mL
15-LOX (lipoxygenase); [5]
  inhibition at 16.2 µg/mL: 65 ± 0.1%
[4]
  Inhibition of protein cross-link formation: 55%

## C[C@@H]1O[C@@H](OC[C@H]2O[C@@H](Oc3c(-c4ccc(O)c(O)c4)oc4cc(O)cc(O)c4c3=O)[C@H](O)[C@@H](O)[C@@H]2O)[C@H](O)[C@H](O)[C@H]1O [Rutin, reference compound]
[1]; [6]
  IC50: 49.1 µM
[2]; [7]
  IC50: 1670 µM
15-LOX (lipoxygenase); 12.5 µg/mL
  inhibition at 12.5 µg/mL: 62 ± 0.1%

## O=C(O)c1cc(O)c(O)c(O)c1 [gallic acid]
α-glucosidase
  α-Glucosidase (IC50): 8.2 µg/mL

## C/C1=C\CC/C(C)=C/CC(C)(C)/C=C/C1 [α-Humulene, α-humulene]
[1]; non-oxidative mode, Table 6
  Protein Glycation BSA-Glucose (IC50): Inactive
[2]; oxidative mode, Table 6
  Protein Glycation BSA-MGO (IC50): Inactive
α-glucosidase
  α-Glucosidase (IC50): Inactive
[3]
  Inhibition of protein cross-link formation: 40%
15-LOX (lipoxygenase); 13.0 µg/mL
  15-LOX Assay (% Inhibition): 60.0 ± 0.1% ^3
